Test results taken from patent US6620828B2, “Thiazole compounds and pharmaceutical compositions for inhibiting protein kinases and methods for their use” (Agouron Pharmaceuticals, Inc., priority 1999, dated 2003).

Test system: human umbilical vein endothelial cells (HUVEC)
Assay: HUVEC proliferation assay
Type: cell-based
Conditions: Homo sapiens, HUVEC, table following Table II (untitled), crude combinatorial library; for inhibition at 0.001 µM: 1 nM; for inhibition at 0.01 µM: 10 nM, read-out: % inhibition @ 10 nM
Outline: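 Readout was MTT dye reduction (A595) after 72 h of stimulation with VEGF at 6 ng/ml final. Compound, in 0.1% DMSO final, was added 1 h before VEGF to HUVEC starved 24 h in 1% FBS. % inhibition was scaled between VEGF-alone and unstimulated wells; IC50 was fitted from triplicate dose curves.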

Structure (SMILES)	inhibition at 0.001 µM	inhibition at 0.01 µM
COc1cc(Nc2nc(N)c(-c3nc(-c4cc(NC(=O)C(=O)Cc5ccccc5)ccc4C)no3)s2)cc(OC)c1OC	23%	21%
COc1cc(Nc2nc(N)c(-c3nc(-c4cc(NC(=O)CSC(=S)N(C)C)ccc4C)no3)s2)cc(OC)c1OC	6%	-7%
COc1cc(Nc2nc(N)c(-c3nc(-c4cc(NC(=O)C5C(C=C(C)C)C5(C)C)ccc4C)no3)s2)cc(OC)c1OC (stereo not drawn)	8%	-11%
COc1cc(Nc2nc(N)c(-c3nc(-c4cc(NC(=O)[C@@]56C[C@@H]7C[C@@H]5CC7(C)C6)ccc4C)no3)s2)cc(OC)c1OC	1%	23%
COc1cc(Nc2nc(N)c(-c3nc(-c4cc(NC(=O)Cc5cccnc5)ccc4C)no3)s2)cc(OC)c1OC	-4%	21%
COc1cc(Nc2nc(N)c(-c3nc(-c4cc(NC(=O)Cc5cc(F)ccc5F)ccc4C)no3)s2)cc(OC)c1OC	-7%	59%
COc1cc(Nc2nc(N)c(-c3nc(-c4cc(NC(=O)Cc5cc(F)cc(F)c5)ccc4C)no3)s2)cc(OC)c1OC	4%	67%
COc1cccc(CC(=O)Nc2ccc(C)c(-c3noc(-c4sc(Nc5cc(OC)c(OC)c(OC)c5)nc4N)n3)c2)c1	12%	35%
COc1cc(Nc2nc(N)c(-c3nc(-c4cc(NC(=O)C5CC[C@H]6C=C[C@@H]5C6)ccc4C)no3)s2)cc(OC)c1OC (stereo partly drawn)	-2%	33%
COc1cc(Nc2nc(N)c(-c3nc(-c4cc(NC(=O)CCc5ccc(C)cc5)ccc4C)no3)s2)cc(OC)c1OC	-18%	23%
COc1cc(Nc2nc(N)c(-c3nc(-c4cc(NC(=O)c5cc(C)on5)ccc4C)no3)s2)cc(OC)c1OC	12%	15%
COc1cc(Nc2nc(N)c(-c3nc(-c4cc(NC(=O)C(=O)CC(C)C)ccc4C)no3)s2)cc(OC)c1OC	7%	18%
COc1cc(Nc2nc(N)c(-c3nc(-c4cc(NC(=O)C5CCCC(OC)C5)ccc4C)no3)s2)cc(OC)c1OC (stereo not drawn)	-4%	19%
COc1cc(Nc2nc(N)c(-c3nc(-c4cc(NC(=O)C5(c6ccc(C)cc6)CC5)ccc4C)no3)s2)cc(OC)c1OC	10%	-8%
COc1cc(Nc2nc(N)c(-c3nc(-c4cc(NC(=O)Cc5sc(S)nc5C)ccc4C)no3)s2)cc(OC)c1OC	-17%	1%
COc1cc(Nc2nc(N)c(-c3nc(-c4cc(NC(=O)c5cc(C)n(C)n5)ccc4C)no3)s2)cc(OC)c1OC	25%	99%
COc1cc(Nc2nc(N)c(-c3nc(-c4cc(NC(=O)C5CC(=O)OC5(C)C)ccc4C)no3)s2)cc(OC)c1OC (stereo not drawn)	-9%	12%
COc1cc(Nc2nc(N)c(-c3nc(-c4cc(NC(=O)c5cc(C)n[nH]5)ccc4C)no3)s2)cc(OC)c1OC	-1%	99%
COc1cc(Nc2nc(N)c(-c3nc(-c4cc(NC(=O)c5cc(C)nn5C)ccc4C)no3)s2)cc(OC)c1OC	-23%	109%
COc1cc(Nc2nc(N)c(-c3nc(-c4cc(NC(=O)c5cc(C)[nH]c5C)ccc4C)no3)s2)cc(OC)c1OC	-36%	16%
COc1cc(Nc2nc(N)c(-c3nc(-c4cc(NC(=O)c5cccc6cc[nH]c56)ccc4C)no3)s2)cc(OC)c1OC	34%	41%
C/C=C(\C)C(=O)Nc1ccc(C)c(-c2noc(-c3sc(Nc4cc(OC)c(OC)c(OC)c4)nc3N)n2)c1	60%	123%
COc1cc(Nc2nc(N)c(-c3nc(-c4cc(NC(=O)c5cc(=O)cco5)ccc4C)no3)s2)cc(OC)c1OC	19%	37%
CCCN(CCC)CC(=O)Nc1ccc(C)c(-c2noc(-c3sc(Nc4cc(OC)c(OC)c(OC)c4)nc3N)n2)c1	6%	0%
CC/C=C(\C)C(=O)Nc1ccc(C)c(-c2noc(-c3sc(Nc4cc(OC)c(OC)c(OC)c4)nc3N)n2)c1	32%	74%
COc1cc(Nc2nc(N)c(-c3nc(-c4cc(NC(=O)Cc5c(F)cccc5F)ccc4C)no3)s2)cc(OC)c1OC	-23%	42%
COc1cc(Nc2nc(N)c(-c3nc(-c4cc(NC(=O)C5C(C)(C)C5(C)C)ccc4C)no3)s2)cc(OC)c1OC	-31%	32%
CCNc1ccccc1C(=O)Nc1ccc(C)c(-c2noc(-c3sc(Nc4cc(OC)c(OC)c(OC)c4)nc3N)n2)c1	-21%	18%
COc1cc(Nc2nc(N)c(-c3nc(-c4cc(NC(=O)[C@H]5CCCN5C(C)=O)ccc4C)no3)s2)cc(OC)c1OC	-44%	-3%
COc1cc(Nc2nc(N)c(-c3nc(-c4cc(NC(=O)C5CC[C@H]6CC(O)CC[C@@H](C5)C6)ccc4C)no3)s2)cc(OC)c1OC (stereo partly drawn)	7%	20%
